Reference: US20230203043A1, “NOVEL IMIDAZOPYRAZINE DERIVATIVES” (Hoffmann-La Roche Inc., priority 2020, published 2023)
Counter-ions that a name gives are not always drawn. Like-named read-outs stand apart in the source and are kept apart here.

Tested on: Acinetobacter baumannii ATCC17961
Test: Antimicrobial susceptibility testing: 90% growth inhibitory concentration (IC90) determination in Iso-Sensitest broth, OD600 growth
Assay type: cell-based
Method: Antimicrobial Susceptibility Testing:
90% Growth Inhibitory Concentration (IC90) Determination
The in vitro antimicrobial activity of the compounds was determined according to the following procedure:
The assay used a 10-points Iso-Sensitest broth medium to measure quantitatively the in vitro activity of the compounds against Acinetobacter baumannii ATCC17961 or ATCC17968.
Stock compounds in DMSO were serially twofold diluted (e.g. range from 50 to 0.097 μM final concentration) in 384 wells microtiter plates and inoculated with 49 μl the bacterial suspension in Iso-Sensitest medium to have a final cell concentration of ˜5×10^(5) CFU/ml in a final volume/well of 50 ul/well. Microtiter plates were incubated at 35±2° C.
Bacterial cell growth was determined with the measurement of optical density at λ=600 nm each 20 minutes over a time course of 16 h. Growth inhibition was calculated during the logarithmic growth of the bacterial cells with determination of the concentration inhibiting 50% (IC50) and 90% (IC90) of the growth.
Table 7 provides the 90% growth inhibitory concentrations (IC90) in micromoles per liter of the compounds of present invention obtained against the strain Acinetobacter baumannii ATCC17961 and/or ATCC17968.

[1] = Acinetobacter baumannii, ATCC17961, 16 h, strain ATCC 17961, OD600 growth over 16 h, read-out: A. baumannii ATCC 17961 IC90
[2] = Acinetobacter baumannii, ATCC17961, 16 h, read-out: A. baumannii ATCC 17961 IC90 (uM), strain ATCC 17961, OD600 growth over 16 h

| Compound | IC90 [1] [µM] | IC90 [2] [µM] | also measured |
| --- | --- | --- | --- |
| N#CCn1cc(-c2cnc3c(Nc4ccc(C(=O)N5CC6(CNC6)C5)c(Cl)c4)nccn23)c(C(F)(F)F)n1 [Example 102, 2-[4-[8-[3-chloro-4-(2,6-diazaspiro[3.3]heptane-2-carbonyl)anilino]imidazo[1,2-a]pyrazin-3-yl]-3-(trifluoromethyl)pyrazol-1-yl]acetonitrile] | 0.18 |  |  |
| CCc1cc(Nc2nccn3c(-c4c[nH]nc4C(F)(F)F)cnc23)ccc1C(=O)NC1CNC1 [Example 515, N-(azetidin-3-yl)-2-ethyl-4-((3-(3-(trifluoromethyl)-1H-pyrazol-4-yl)imidazo[1,2-a]pyrazin-8-yl)amino)benzamide formate] |  | 0.49 |  |
| CCc1cc(Nc2nccn3c(-c4cn(CC(F)F)nc4C(F)(F)F)cnc23)ccc1C(=O)N1CC2(CCN2)C1 [Example 564, (4-((3-(1-(2,2-difluoroethyl)-3-(trifluoromethyl)-1H-pyrazol-4-yl)imidazo[1,2-a]pyrazin-8-yl)amino)-2-ethylphenyl)(1,6-diazaspiro[3.3]heptan-6-yl)methanone formate] |  | 0.58 |  |
| CCc1cc(Nc2nccn3c(-c4cn(CC#N)nc4C(F)(F)F)cnc23)ccc1C(=O)NCC(=O)N1CCC(CN)C1 (centres unmarked) [Example 509, N-[2-[3-(aminomethyl)pyrrolidin-1-yl]-2-oxo-ethyl]-4-[[3-[1-(cyanomethyl)-3-(trifluoromethyl)pyrazol-4-yl]imidazo[1,2-a]pyrazin-8-yl]amino]-2-ethyl-benzamide formate] |  | 0.23 |  |
| CCc1cc(Nc2nccn3c(-c4cn(CC#N)nc4C(F)(F)F)cnc23)ccc1C(=O)NCCNC(=O)[C@@H]1CC[C@@H](N)C1 [Example 587, N-(2-((1R,3R)-3-aminocyclopentane-1-carboxamido)ethyl)-4-((3-(1-(cyanomethyl)-3-(trifluoromethyl)-1H-pyrazol-4-yl)imidazo[1,2-a]pyrazin-8-yl)amino)-2-ethylbenzamide formate] |  | 0.221 |  |
| N[C@H]1CC[C@@H](C(=O)N2CCN(C(=O)c3ccc(Nc4nccn5c(-c6c[nH]nc6C(F)(F)F)cnc45)cc3Cl)CC2)C1 [Example 340, [4-[(1R,3S)-3-aminocyclopentanecarbonyl]piperazin-1-yl]-[2-chloro-4-[[3-[3-(trifluoromethyl)-1H-pyrazol-4-yl]imidazo[1,2-a]pyrazin-8-yl]amino]phenyl]methanone formate] |  | 0.194 |  |
| CCc1cc(Nc2nccn3c(-c4c[nH]nc4C(F)(F)F)cnc23)ccc1C(=O)NCCCNC(=O)[C@H](C)N [Example 652, (S)-N-(3-(2-aminopropanamido)propyl)-2-ethyl-4-((3-(3-(trifluoromethyl)-1H-pyrazol-4-yl)imidazo [1,2-a]pyrazin-8-yl)amino)benzamide formate] |  | 0.259 |  |
| N#CCn1cc(-c2cnc3c(Nc4ccc(C(=O)NOCCN)c(Cl)c4)nccn23)c(C(F)(F)F)n1 [Example 201, N-(2-aminoethoxy)-2-chloro-4-[[3-[1-(cyanomethyl)-3-(trifluoromethyl)pyrazol-4-yl]imidazo[1,2-a]pyrazin-8-yl]amino]benzamide formate] |  | 0.486 |  |
| CCc1cc(Nc2nccn3c(-c4cn(CC(F)F)nc4C(F)(F)F)cnc23)ccc1C(=O)NCC1CNC1 [Example 557, N-(azetidin-3-ylmethyl)-4-((3-(1-(2,2-difluoroethyl)-3-(trifluoromethyl)-1H-pyrazol-4-yl)imidazo[1,2-a]pyrazin-8-yl)amino)-2-ethylbenzamide formate] |  | 0.144 |  |
| Cc1cc(Nc2nccn3c(-c4cn(CC#N)nc4C(F)(F)F)cnc23)ccc1C(=O)NCC(=O)N1CC[C@H](N)C1 [Example 739, N-[2-[(3S)-3-aminopyrrolidin-1-yl]-2-oxo-ethyl]-4-[[3-[1-(cyanomethyl)-3-(trifluoromethyl)pyrazol-4-yl]imidazo[1,2-a]pyrazin-8-yl]amino]-2-methyl-benzamide formate] |  | 0.527 |  |
| Cc1cc(Nc2nccn3c(-c4c[nH]nc4C(F)(F)F)cnc23)ccc1C(=O)N1CCN(C(=O)[C@H]2CCNC[C@@H]2O)CC1 [Example 465, formic acid; [4-[(3R,4S)-3-hydroxypiperidine-4-carbonyl]piperazin-1-yl]-[2-methyl-4-[[3-[3-(trifluoromethyl)-1H-pyrazol-4-yl]imidazo[1,2-a]pyrazin-8-yl]amino]phenyl]methanone] |  | 1.62 |  |
| C=CCn1cc(-c2cnc3c(Nc4ccc(C(=O)NCCCN)c(CC)c4)nccn23)c(C(F)(F)F)n1 [Example 48, N-(3-aminopropyl)-2-ethyl-4-[[3-[1-prop-2-enyl-3-(trifluoromethyl)pyrazol-4-yl]imidazo[1,2-a]pyrazin-8-yl]amino] benzamide] |  |  | IC90 (strain ATCC 17961, OD600 growth over 16 h, read-out: A. baumannii ATCC 17961 IC90): 0.117 µM |

More lines, main results first:

| IC90 [1] [µM] | Compound | IC90 [2] [µM] | also measured |
| --- | --- | --- | --- |
| 0.266 | CCc1cc(Nc2nccn3c(-c4cn(CCC(C)(C)Cl)nc4C(F)(F)F)cnc23)ccc1C(=O)NCCOCCN [Example 655, N-(2-(2-aminoethoxy)ethyl)-4-((3-(1-(3-chloro-3-methylbutyl)-3-(trifluoromethyl)-1H-pyrazol-4-yl)imidazo[1,2-a]pyrazin-8-yl)amino)-2-ethylbenzamide] |  |  |
| 0.245 | N#CCn1cc(-c2cnc3c(Nc4ccc(C(=O)N5CCN(C(=O)[C@H]6CCNC6)CC5)c(Cl)c4)nccn23)c(C(F)(F)F)n1 [Example 190, 2-[4-[8-[3-chloro-4-[4-[(3S)-pyrrolidine-3-carbonyl]piperazine-1-carbonyl]anilino]imidazo[1,2-a]pyrazin-3-yl]-3-(trifluoromethyl)pyrazol-1-yl]acetonitrile] |  |  |
| 0.35 | NCCCCNC(=O)c1ccc(Nc2nccn3c(-c4c[nH]nc4C(F)(F)F)cnc23)cc1Cl [Example 362, N-(4-aminobutyl)-2-chloro-4-[[3-[3-(trifluoromethyl)-1H-pyrazol-4-yl]imidazo[1,2-a]pyrazin-8-yl]amino]benzamide] |  |  |
| 0.576 | O=C(N[C@@H]1CCNC1)c1ccc(Nc2nccn3c(-c4c[nH]nc4C(F)(F)F)cnc23)cc1Cl [Example 379, 2-chloro-N-[(3R)-pyrrolidin-3-yl]-4-[[3-[3-(trifluoromethyl)-1H-pyrazol-4-yl]imidazo[1,2-a]pyrazin-8-yl]amino]benzamide] |  |  |
| 1.05 | C[C@@H]1CN(C(=O)c2ccc(Nc3nccn4c(-c5c[nH]nc5C(F)(F)F)cnc34)cc2Cl)CCN1 [Example 323, [2-chloro-4-[[3-[3-(trifluoromethyl)-1H-pyrazol-4-yl]imidazo[1,2-a]pyrazin-8-yl]amino]phenyl]-[(3R)-3-methylpiperazin-1-yl]methanone] |  |  |
| 4.04 | O=C(NC1CCCNC1)c1ccc(Nc2nccn3c(-c4c[nH]nc4C(F)(F)F)cnc23)cc1Cl (centres unmarked) [Example 414, 2-chloro-N-piperidin-3-yl-4-[[3-[3-(trifluoromethyl)-1H-pyrazol-4-yl]imidazo[1,2-a]pyrazin-8-yl]amino]benzamide] |  |  |
| 0.836 | CCc1cc(Nc2nccn3c(-c4cn(CC(F)F)nc4C(F)(F)F)cnc23)ccc1C(=O)N1CCC1(CN)CCl (centres unmarked) [Example 560, (2-(aminomethyl)-2-(chloromethyl)azetidin-1-yl)(4-((3-(1-(2,2-difluoroethyl)-3-(trifluoromethyl)-1H-pyrazol-4-yl)imidazo[1,2-a]pyrazin-8-yl)amino)-2-ethylphenyl) methanone formate] |  |  |
| 1.32 | CCc1cc(Nc2nccn3c(-c4cn(CCNC)nc4C(F)(F)F)cnc23)ccc1C(=O)NC [Example 298, 2-ethyl-N-methyl-4-[[3-[1-[2-(methylamino)ethyl]-3-(trifluoromethyl)pyrazol-4-yl]imidazo[1,2-a]pyrazin-8-yl]amino]benzamide] |  |  |
